Results published in patent US20210145801A1, “THERAPY FOR PROTEIN MISFOLDING DISEASE” (WREN THERAPEUTICS LIMITED, priority 2018, published 2021).
Like-named read-outs stand apart in the source and are kept apart here.

What was measured:
[1] = Brain microdialysis time course study (striatum); format: in vivo, male C57BL/6 mice; conditions: 15 mg/kg po; for Netoglitazone (ng/ml) in microdialysate / Netoglitazone (ng/ml) corrected for recovery: striatum; for Netoglitazone (ng/ml) corrected for recovery: recovery 0.11; for concentration at 6 h: terminal sample shortly after 6 hours
Method: To further assess the free drug exposure in the CNS following dosing of Netoglitazone an in vivo surgical microdialysis time course study was performed. Microdialysis is a minimally-invasive sampling technique that is used for continuous measurement of free, unbound analyte concentrations in the extracellular fluid of virtually any tissue (e.g. ISF in the brain). The microdialysis technique requires the insertion of a small microdialysis catheter (also referred to as microdialysis probe) into the tissue of interest. The microdialysis probe is designed to mimic a blood capillary and consists of a shaft with a semipermeable hollow fiber membrane at its tip, which is connected to inlet and outlet tubing. The probe is continuously perfused with an aqueous solution (perfusate) that closely resembles the (ionic) composition of the surrounding tissue fluid at a low flow rate of approximately 0.1-5 μL/min. Once inserted into the tissue or (body)fluid of interest, small solutes can cross the semipermeable membrane by passive diffusion. The direction of the analyte flow is determined by the respective concentration gradient and allows the usage of microdialysis probes as sampling as well as delivery tools. The solution leaving the probe (dialysate) is collected at certain time intervals for analysis. It is widely recognised as the ‘gold standard’ technique for measuring free drug levels in the CNS. Briefly, 3 male C57BL/6 mice (18 weeks old) were surgically prepared with one cannula in the brain to allow for microdialysis sampling from the striatum. Animals were allowed one day to recover and then habituated to the microdialysis cages overnight. On the study day, a microdialysis probe was inserted through the implanted cannula. […] At the end of the experiment animals were anaesthetised and terminal blood and brain samples collected.

[2] = target: T1, Aβ42 oligomers (Homo sapiens, UniProt P05067); assay: ELISA with oligomer-specific antibody; format: biochemical; conditions: 5 μM Aβ42; 5-fold excess; at half-time of Aβ42 alone
T1 construct: made in house; host or cells: E. coli BL21 Gold (DE3)
T1 sequence (P05067 671-713): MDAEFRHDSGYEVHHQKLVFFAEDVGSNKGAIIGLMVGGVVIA
Method: 20 μl Aliquots were taken at the t50 (i.e. half-time) from aggregation reactions of 5 μM Aβ42 in the absence and in the presence of 5-fold excess of Netoglitazone. Samples were then immobilised on a 96-well Maxisorp ELISA plate (Nunc, Roskilde, Denmark) with no shaking for 1 h at room temperature. The plate was then washed three times with 20 mM Tris pH 7.4, 100 mM NaCl and incubated in 20 mM Tris pH 7.4, 100 mM NaCl, 5% BSA under constant shaking overnight at 4° C. The day after the plate was washed six times with 20 mM Tris pH 7.4, 100 mM NaCl and then incubated with 30 μl solutions of 5 μM oligomer-specific antibody under constant shaking either for 1 hour or overnight at room temperature. At the end of this incubation, the plate was washed six times with 20 mM Tris pH 7.4, 100 mM NaCl and incubated with 30 μl solutions of Rabbit polyclonal to 6× His Tag® HRP conjugated (Abcam, Cambridge, UK) at a dilution of 1:4000 in 20 mM Tris pH 7.4, 100 mM NaCl, 5% BSA under shaking for 1 hour at room temperature. […] Finally, the amount of bound oligomer-specific antibody was quantified by using 1-Step™ Ultra TMB-ELISA Substrate Solution (ThermoFisher Scientific, Waltham, Mass., United States), according to manufacturer instructions, and measuring the absorbance at 450 nm by means of a CLARIOstar plate reader (BMG Labtech, Aylesbury, UK).

O=C1NC(=O)C(Cc2ccc3cc(OCc4ccccc4F)ccc3c2)S1 (stereo not drawn) [Netoglitazone]
Crossing of the blood-brain barrier after oral administration [1]: readily crosses the blood-brain barrier
First microdialysate fraction in which compound could be detected ([1]; post administration): 30 to 60 min
Netoglitazone (ng/ml) in microdialysate ([1]; 0-30 min after dose): <LLOQ
Netoglitazone (ng/ml) in microdialysate ([1]; 30-60 min after dose): 0.4 ng/mL
Netoglitazone (ng/ml) in microdialysate ([1]; 60-90 min after dose): 0.5 ng/mL
Netoglitazone (ng/ml) in microdialysate ([1]; 90-120 min after dose): 0.7 ng/mL
Netoglitazone (ng/ml) in microdialysate ([1]; 120-150 min after dose): 0.9 ng/mL
Netoglitazone (ng/ml) in microdialysate ([1]; 150-180 min after dose): 1.1 ng/mL
Netoglitazone (ng/ml) in microdialysate ([1]; 180-210 min after dose): 1.3 ng/mL
Netoglitazone (ng/ml) in microdialysate ([1]; 210-240 min after dose): 1.5 ng/mL
Netoglitazone (ng/ml) in microdialysate ([1]; 240-270 min after dose): 1.9 ng/mL
Netoglitazone (ng/ml) in microdialysate ([1]; 270-300 min after dose): 2.8 ng/mL
Netoglitazone (ng/ml) in microdialysate ([1]; 300-330 min after dose): 3.3 ng/mL
Netoglitazone (ng/ml) in microdialysate ([1]; 330-360 min after dose): 3.6 ng/mL
Netoglitazone (ng/ml) corrected for recovery ([1]; 0-30 min after dose): <LLOQ
Netoglitazone (ng/ml) corrected for recovery ([1]; 30-60 min after dose): 3.6 ng/mL
Netoglitazone (ng/ml) corrected for recovery ([1]; 60-90 min after dose): 4.5 ng/mL
Netoglitazone (ng/ml) corrected for recovery ([1]; 90-120 min after dose): 6.4 ng/mL
Netoglitazone (ng/ml) corrected for recovery ([1]; 120-150 min after dose): 8.2 ng/mL
Netoglitazone (ng/ml) corrected for recovery ([1]; 150-180 min after dose): 10.0 ng/mL
Netoglitazone (ng/ml) corrected for recovery ([1]; 180-210 min after dose): 11.8 ng/mL
Netoglitazone (ng/ml) corrected for recovery ([1]; 210-240 min after dose): 13.6 ng/mL
Netoglitazone (ng/ml) corrected for recovery ([1]; 240-270 min after dose): 17.3 ng/mL
Netoglitazone (ng/ml) corrected for recovery ([1]; 270-300 min after dose): 25.5 ng/mL
Netoglitazone (ng/ml) corrected for recovery ([1]; 300-330 min after dose): 30.0 ng/mL
Netoglitazone (ng/ml) corrected for recovery ([1]; 330-360 min after dose): 32.7 ng/mL
Kp at 6 h ([1]; male, C57BL/6, mouse, brain / plasma, terminal samples shortly after 6 hours, read-out: Brain:plasma ratio): 0.8
concentration at 6 h ([1]; male, C57BL/6, mouse, plasma, read-out: Concentration in plasma): 13300 ng/mL
concentration at 6 h ([1]; male, C57BL/6, mouse, whole brain, read-out: Concentration in brain): 10300 ng/g
Aβ42 oligomer concentration (ELISA) [2]: significant reduction in the Aβ42 oligomer concentration
